Paper PMC7143510, “In Vitro Efficiency of Antimicrobial Peptides against Staphylococcal Pathogens Associated with Canine Pyoderma” (Animals : an Open Access Journal from MDPI, 2020)
Where no end group is shown, it is not given here.

Experiments:
[1] = system: canine S. pseudintermedius strains; test: MIC, broth microdilution (CLSI); assay type: cell-based, Staphylococcus pseudintermedius
Method: (§1) Sixty-six well-characterized staphylococcal strains (60 S. pseudintermedius and 6 S. aureus strains) were selected from the archived previously described collection. This study was conducted based on a retrospective analysis of staphylococcal canine strains isolated and archived at the Laboratory of Department of Medical Microbiology of MUG during routine clinical laboratory procedures. All samples were routinely collected by a veterinarian during the course of infection treatment or control visits, not specifically for this research. The animals were swabbed only after the owner’s consent was given, as we stated in the previous published study.
(§2) Staphylococcal strains were classified as multidrug-resistant (MDR) when they were not susceptible to at least one agent in three different classes of antimicrobials. Sixty examined S. pseudintermedius strains included thirty multidrug-resistant strains (MDRSP) and seven methicillin-resistant strains (MRSP). Six canine S. aureus strains, including three multidrug-resistant strains (MDRSA). S. pseudintermedius strains, including MDRSP (n = 30) and MRSP (7) strains, were resistant to: amoxicillin (61.6%), clindamycin (48.3%), erythromycin (45%), gentamicin (33.3%), chloramphenicol (26.6%), sulfamethoxazole/trimethoprim (25%), tetracycline (20%), cefadroxil (11.6%), oxacillin (11.6%) and ciprofloxacin (10%). Six S. aureus strains, including MDRSA (n = 3), were resistant to: amoxicillin (3/6), erythromycin (3/6), gentamicin (3/6), clindamycin (2/6), chloramphenicol (1/6), sulfamethoxazole/trimethoprim (1/6) and doxycycline (1/6). The following reference strains were used: S. aureus ATCC 6538 (MSSA), S. aureus ATCC 43300 (MRSA), S. intermedius PCM 2405. Both the reference- and clinical strains were stored at −80 °C in Tryptic Soy Broth (TSB, Becton–Dickinson, USA) supplemented with 15% glycerol.
(§3) The antimicrobial susceptibility of each strain to the tested peptides was determined using the minimal inhibitory concentrations (MIC) microdilution method as recommended by the Clinical Laboratory Standards Institute (CLSI) guidelines. Briefly, the staphylococcal strains were grown overnight on a Columbia blood agar (Graso Biotech, Poland) at 37 °C. Isolated colonies were suspended in saline solution and adjusted to a 0.5 McFarland standard. The bacterial suspension was diluted ~ 1:100 to a final concentration of 1 × 10^6 colony forming units (cfu/mL). Two-fold serial dilutions of each tested peptide in Mueller–Hinton Broth 2 (Sigma–Aldrich) were added (100 µL) to polypropylene 96-well plates containing bacterial inoculum (100 µL) and were incubated at 37 °C for 18 h. All clinical and reference strains were tested in duplicate. Bacterial growth was assessed visually after incubation and MIC was recorded as the lowest drug concentration at which an observable growth was inhibited. The MIC50 and MIC90 values were defined as the lowest concentrations of peptides at which 50% and 90% of the strains were inhibited, respectively.

canine S. aureus strains [2] = test: MIC, broth microdilution (CLSI); assay type: cell-based, Staphylococcus aureus
Method: as §1, §2, §3

[3] = system: canine S. pseudintermedius strains; test: MBC, subculture from MIC assay; assay type: cell-based, Staphylococcus pseudintermedius; conditions: 48 h
Method: (§4) The loopful (10 µl) of the tested sample was transferred to Triptic Soy Broth (TSB, BD Difco) and incubated at 37 °C for 48 h. MBC was taken as the lowest concentration of each peptide at which staphylococcal colonies were no longer viable on the subculture.

canine S. aureus strains [4] = test: MBC, subculture from MIC assay; assay type: cell-based, Staphylococcus aureus; conditions: 48 h
Method: as §4

[5] = canine S. pseudintermedius (I), 60 strains, Mueller–Hinton Broth 2, 1 × 10^6 cfu/mL, 37 °C, 18 h, visual, duplicate
[6] = canine S. pseudintermedius (I), 60 strains, lowest concentration inhibiting 50% of strains
[7] = canine S. pseudintermedius (I), 60 strains, lowest concentration inhibiting 90% of strains
[8] = canine S. aureus (II), 6 strains, Mueller–Hinton Broth 2, 1 × 10^6 cfu/mL, 37 °C, 18 h, visual, duplicate
[9] = canine S. aureus (II), 6 strains, lowest concentration inhibiting 50% of strains
[10] = canine S. aureus (II), 6 strains, lowest concentration inhibiting 90% of strains
[11] = canine S. pseudintermedius (I), 60 strains, 10 µl subcultured in TSB, 37 °C
[12] = canine S. aureus (II), 6 strains, 10 µl subcultured in TSB, 37 °C

Substance	MIC50 ([1]; 18 h)	MIC90 ([1]; 18 h)	MIC Median (IQR) ([1]; 18 h)	MIC50 (canine S. aureus strains [2]; canine strains, 18 h)	MIC90 (canine S. aureus strains [2]; canine strains, 18 h)	MIC Median (IQR) (canine S. aureus strains [2]; canine strains, 18 h)	MBC Median (IQR) [3]	MBC Median (IQR) (canine S. aureus strains [4]; canine strains)	MIC Median (IQR) [1, 5]	MIC50 [1, 6]	MIC90 [1, 7]	MIC Median (IQR) (canine S. aureus strains [2]; [8])	MIC50 (canine S. aureus strains [2]; [9])	MIC90 (canine S. aureus strains [2]; [10])	MBC Median (IQR) [3, 11]	MBC Median (IQR) (canine S. aureus strains [4]; [12])
FLPLIGRVLSGIL-NH2 [Temporin A]	8 µg/mL	8 µg/mL	8 (4–8) µg/mL	8 µg/mL	8 µg/mL	8 (8–8) µg/mL	8 (8–8) µg/mL	8 (8–14) µg/mL								
GIGKFLKKAKKFGKAFVKILKK-NH2 [Pexiganan]	4 µg/mL	4 µg/mL	4 (2–4) µg/mL	4 µg/mL	8 µg/mL	6 (4–8) µg/mL	4 (2–4) µg/mL	8 (8–8) µg/mL								
GLFDIIKKIAESF-NH2 [Aurein 1.2]									32 (32–32) µg/mL	32 µg/mL	32 µg/mL	128 (128–128) µg/mL	128 µg/mL	256 µg/mL	64 (64–64) µg/mL	128 (128–224) µg/mL
GLFDVIKKVASVIGGL-NH2 [Citropin 1.1]	4 µg/mL	4 µg/mL	4 (4–4) µg/mL	8 µg/mL	16 µg/mL	8 (8–14) µg/mL	4 (4–4) µg/mL	12 (8–16) µg/mL								
GVIDAAKKVVNVLKNLF-NH2 [Uperin 3.6]	2 µg/mL	2 µg/mL	2 (2–2) µg/mL	8 µg/mL	16 µg/mL	8 (8–14) µg/mL	2 (2–4) µg/mL	16 (16–16) µg/mL								
KWKLFKKIGAVLKVL-NH2 [CAMEL]									2 (2–4) µg/mL	2 µg/mL	4 µg/mL	4 (4–4) µg/mL	4 µg/mL	4 µg/mL	4 (2–4) µg/mL	4 (4–4) µg/mL
